Assay results reported in ChEMBL document CHEMBL1201862, “PubChem BioAssay data set” (2004).
Counter-ions that a name gives are not always drawn.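 Five compound concentrations were applied to cells in 96-well plates for 48 hours; endpoints were derived by simple linear interpolation of the resulting dose-response curve. GI50 = concentration required for 50% inhibition of growth.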 Activity calls are given as the source filed them. Cut-off read from the data, not from the text of the source: active = GI50 up to about 1.1 µM and inactive = higher.

Columns and labels:
Test in all cases: growth of human tumour cells (NCI), 48 h
A549 = test system: A549
COLO 205 = test system: COLO 205
HCT-15 = test system: HCT-15
HOP-62 = test system: HOP-62
HT-29 = test system: HT-29
K562 = test system: K562
MDA-MB-435 = test system: MDA-MB-435
MOLT-4 = test system: MOLT-4
NCI-H23 = test system: NCI-H23
OVCAR-4 = test system: OVCAR-4
OVCAR-5 = test system: OVCAR-5
RPMI-8226 = test system: RPMI-8226
SF-539 = test system: SF-539
SK-MEL-28 = test system: SK-MEL-28
SK-OV-3 = test system: SK-OV-3
SN12C = test system: SN12C
TK-10 = test system: TK-10
UACC-257 = test system: UACC-257
UACC-62 = test system: UACC-62
UO-31 = test system: UO-31

Measured: GI50

COc1cccc2c(Nc3ccc(S(=O)(=O)NC(C)=O)cc3)c3ccc([N+](=O)[O-])cc3nc12
inactive: A549 39.4 µM | COLO 205 28.5 µM | HOP-62 > 78.2 µM | HT-29 13.8 µM | K562 22 µM | MDA-MB-435 31.6 µM | MOLT-4 17.2 µM | NCI-H23 35.2 µM | OVCAR-4 97.7 µM | OVCAR-5 > 66.5 µM | RPMI-8226 16.3 µM | SF-539 60.5 µM | SK-MEL-28 > 48.4 µM | SK-OV-3 > 100 µM | SN12C 57.1 µM | TK-10 22.4 µM | UACC-257 25.9 µM | UACC-62 31.4 µM | UO-31 12.4 µM
47 µM: HCT-15

CCOP(=O)(OCC)/C(F)=C/c1ccc(F)cc1
> 100 µM: HCT-15
inactive: A549 > 100 µM | COLO 205 > 100 µM | HOP-62 > 100 µM | HT-29 > 100 µM | K562 > 100 µM | MDA-MB-435 > 100 µM | MOLT-4 > 100 µM | NCI-H23 > 100 µM | OVCAR-4 > 100 µM | OVCAR-5 > 100 µM | RPMI-8226 > 100 µM | SF-539 > 100 µM | SK-MEL-28 > 100 µM | SK-OV-3 > 100 µM | SN12C > 100 µM | TK-10 > 100 µM | UACC-257 > 100 µM | UACC-62 91.2 µM | UO-31 > 100 µM

O=C(N/N=C\c1ccc(Cl)cc1)Nc1ccc2ccccc2c1
inactive: A549 52 µM | COLO 205 > 100 µM | HOP-62 21.9 µM | HT-29 46.2 µM | K562 > 100 µM | MDA-MB-435 49.7 µM | MOLT-4 > 100 µM | NCI-H23 76.4 µM | OVCAR-4 19.8 µM | OVCAR-5 71.6 µM | RPMI-8226 70.8 µM | SF-539 27.8 µM | SK-MEL-28 54.7 µM | SK-OV-3 94.6 µM | SN12C 40.6 µM | TK-10 55.5 µM | UACC-257 95.5 µM | UACC-62 34.5 µM | UO-31 53.7 µM
> 100 µM: HCT-15

CC(=O)O/C(=C(/C#N)C(=O)O)C1C(C(=O)O)C(c2ccccc2[N+](=O)[O-])C=C(c2ccco2)N1c1ccncc1 (stereo not given)
1.71 µM: HCT-15
inactive: A549 3.41 µM | COLO 205 3.41 µM | HOP-62 7.82 µM | HT-29 1.61 µM | K562 2.31 µM | MDA-MB-435 4.62 µM | MOLT-4 2.54 µM | NCI-H23 5.45 µM | OVCAR-4 14.3 µM | OVCAR-5 7.89 µM | RPMI-8226 1.68 µM | SF-539 1.95 µM | SK-MEL-28 10.4 µM | SK-OV-3 11.6 µM | SN12C 4.86 µM | TK-10 3.33 µM | UACC-257 3.9 µM | UACC-62 7.52 µM | UO-31 2.87 µM

COc1ccc(CNc2nc(NC3CCCCC3)nc(NC3CCCCC3)n2)cc1
2.13 µM: HCT-15
inactive: A549 5.38 µM | COLO 205 3.62 µM | HOP-62 8.18 µM | HT-29 2.61 µM | K562 5.08 µM | MDA-MB-435 21.8 µM | MOLT-4 4.25 µM | NCI-H23 2.4 µM | OVCAR-4 4.02 µM | OVCAR-5 4.06 µM | RPMI-8226 2.66 µM | SF-539 8.28 µM | SK-MEL-28 20.6 µM | SK-OV-3 > 100 µM | SN12C 6.53 µM | TK-10 10 µM | UACC-257 13.9 µM | UACC-62 6.46 µM | UO-31 3.57 µM

CC(=O)OCC12C(OC(C)=O)C[C@@H](C)C3(CC(c4ccoc4)OC3=O)C1CCC(OC(C)=O)C21CO1 (stereo not given in full)
> 100 µM: HCT-15
inactive: A549 > 100 µM | COLO 205 > 100 µM | HOP-62 > 100 µM | HT-29 > 100 µM | K562 > 100 µM | MDA-MB-435 > 100 µM | MOLT-4 > 100 µM | NCI-H23 > 100 µM | OVCAR-4 > 100 µM | OVCAR-5 > 100 µM | RPMI-8226 > 100 µM | SF-539 > 100 µM | SK-MEL-28 > 100 µM | SK-OV-3 > 100 µM | SN12C > 100 µM | TK-10 > 100 µM | UACC-257 > 100 µM | UACC-62 > 100 µM | UO-31 > 100 µM

CC(=O)/C(C)=N/NC(=O)c1ccccc1O
97.5 µM: HCT-15
inactive: A549 > 10 µM | COLO 205 > 10 µM | HOP-62 > 10 µM | HT-29 > 10 µM | K562 37 µM | MDA-MB-435 > 100 µM | MOLT-4 31.7 µM | NCI-H23 > 10 µM | OVCAR-4 > 10 µM | OVCAR-5 > 10 µM | RPMI-8226 > 10 µM | SF-539 > 10 µM | SK-MEL-28 > 10 µM | SK-OV-3 > 10 µM | SN12C > 10 µM | TK-10 > 10 µM | UACC-257 > 10 µM | UACC-62 39.7 µM | UO-31 > 10 µM

N#CC(NC12CC3CC(CC(C3)C1)C2)c1ccccc1 (stereo not given)
> 100 µM: HCT-15
inactive: A549 > 100 µM | COLO 205 > 100 µM | HOP-62 > 100 µM | HT-29 > 100 µM | K562 > 100 µM | MDA-MB-435 > 100 µM | MOLT-4 > 100 µM | NCI-H23 > 100 µM | OVCAR-4 > 100 µM | OVCAR-5 > 100 µM | RPMI-8226 > 100 µM | SF-539 > 100 µM | SK-MEL-28 > 100 µM | SK-OV-3 > 100 µM | SN12C > 100 µM | TK-10 > 100 µM | UACC-257 > 100 µM | UACC-62 > 100 µM | UO-31 > 100 µM

COc1cc(-c2oc3c(OC)c(O)c(OC)c(O)c3c(=O)c2OC)cc(OC)c1OC
41.7 µM: HCT-15
inactive: A549 > 100 µM | COLO 205 83.8 µM | HOP-62 28.8 µM | HT-29 50.4 µM | K562 36.7 µM | MDA-MB-435 35.4 µM | MOLT-4 59.6 µM | NCI-H23 > 100 µM | OVCAR-4 > 100 µM | OVCAR-5 > 100 µM | RPMI-8226 31.8 µM | SF-539 74.3 µM | SK-MEL-28 81.5 µM | SK-OV-3 40.9 µM | SN12C > 100 µM | TK-10 55.5 µM | UACC-257 82.4 µM | UACC-62 24.3 µM | UO-31 17.3 µM

CC(=O)Oc1ccccc1C(=O)O [ASPIRIN]
inactive: A549 > 100 µM | COLO 205 > 100 µM | HOP-62 > 100 µM | HT-29 > 100 µM | K562 > 100 µM | MDA-MB-435 > 100 µM | MOLT-4 > 100 µM | NCI-H23 > 100 µM | OVCAR-4 > 100 µM | OVCAR-5 > 100 µM | RPMI-8226 > 100 µM | SF-539 > 100 µM | SK-MEL-28 > 100 µM | SK-OV-3 > 100 µM | SN12C > 100 µM | TK-10 > 100 µM | UACC-257 > 100 µM | UACC-62 > 100 µM | UO-31 > 100 µM
> 100 µM: HCT-15

CCc1ccc2c(c1)N(CC(C)CN(C)C)c1ccccc1S2 (stereo not given) [ETYMEMAZINE HYDROCHLORIDE]
6.21 µM: HCT-15
inactive: A549 8.39 µM | COLO 205 3.29 µM | HOP-62 6.38 µM | HT-29 3.12 µM | MDA-MB-435 2.87 µM | NCI-H23 7.64 µM | OVCAR-4 5.16 µM | OVCAR-5 4.98 µM | RPMI-8226 2.17 µM | SF-539 10.2 µM | SK-MEL-28 2.21 µM | SK-OV-3 6.53 µM | SN12C 7.21 µM | TK-10 4.81 µM | UACC-257 2.74 µM | UACC-62 5.31 µM | UO-31 2.73 µM
active: K562 0.37 µM | MOLT-4 0.736 µM
